Reference: patent US12679832B2, “Compounds and their uses as CD38 inhibitors” (Nanjing Immunophage Biotech Co., Ltd., priority 2021, dated 2026)
pIC50: −log10 of the molar value.

Biological target: T1, hCD38 Enzyme (Homo sapiens, UniProt P28907)
T1 construct: purchased Sino Biological Inc 10818-H08H
T1 sequence (P28907 43-300 limits assumed): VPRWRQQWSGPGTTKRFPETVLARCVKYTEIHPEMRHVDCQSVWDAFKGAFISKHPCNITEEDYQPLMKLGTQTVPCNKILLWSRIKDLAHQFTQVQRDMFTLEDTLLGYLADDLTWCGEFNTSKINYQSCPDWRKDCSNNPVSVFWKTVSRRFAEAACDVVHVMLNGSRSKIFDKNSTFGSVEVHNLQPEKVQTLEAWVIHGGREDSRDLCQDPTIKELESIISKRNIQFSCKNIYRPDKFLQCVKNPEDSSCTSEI
Experiment: CD38 hydrolase enzymatic assay
Assay type: biochemical
Conditions: rhCD38, ε-NAD substrate, 25° C., point reading time 20 mins; read-out: hCD38 Enzyme inhibition IC50
Experimental: Also, a blank sample was prepared with 50 μl of sucrose buffer and no test compounds.
The dynamic reading was performed at 25° C. with excitation light of 300 nm and emission light of 410 nm on the enzyme marker by contacting the above-prepared rhCD38 enzyme working fluid and the above-prepared solutions of the test compounds disclosed herein or the solution of the control. The readings were recorded for a total of 1 hour, and the data were analyzed with the point reading time of 20 mins.
Fluorescence was recorded by a microplate reader. Individual excel files containing fluorescence data were exported and the results were plotted against various drug concentrations and analyzed in GraphPad Prism 7.0 for concentration curve generation.

Compound	pIC50
C[C@H]1CC[C@H](NC(=O)c2cc(OC3COC3)nc(-n3ccnc3)n2)CC1 [Compound 150]	7.80
CC(C)(O)c1ccc(NC(=O)c2cc(C(F)(F)F)nc(-n3ccnc3)n2)cc1F [Compound 180]	7.96
COCCOc1cc(F)cc(NC(=O)c2cc(C(F)(F)F)nc(-n3ccnc3)n2)c1 [Compound 182]	8.02
CO[C@H]1CC[C@H](NC(=O)c2cc(-c3ccnc(C(F)(F)F)c3)nc(-n3ccnc3)n2)CC1 [Compound 184]	7.55
CO[C@H]1CC[C@H](NC(=O)c2cc(-n3ccnc3)cc(-n3ccnc3)n2)CC1 [compound 1, 4,6-di (1H-imidazol-1-yl)-N-((1r,4r)-4-methoxycyclohexyl)picolinamide]	7.54
CO[C@H]1CC[C@H](NC(=O)c2cc(-n3ccnc3)cc(Cl)n2)CC1 [compound 2, 6-chloro-4-(1H-imidazol-1-yl)-N-((1r,4r)-4-methoxycyclohexyl)picolinamide]	5.57
CO[C@H]1CC[C@H](NC(=O)c2cc(-n3ccnc3)cc(=O)[nH]2)CC1 [compound 3, 4-(1H-imidazol-1-yl)-N-((1r,4r)-4-methoxycyclohexyl)-6-oxo-1.6-dihydropyridine-2-carboxamide]	< 5.00
COc1cc(C(=O)N[C@H]2CC[C@H](OC)CC2)nc(-n2ccnc2)c1 [compound 4, 6-(1H-imidazol-1-yl)-4-methoxy-N-((1r,4r)-4-methoxycyclohexyl)picolinamide]	7.40
CO[C@H]1CC[C@H](NC(=O)c2cc(O)cc(-n3ccnc3)n2)CC1 [compound 5, 4-hydroxy-6-(1H-imidazol-1-yl)-N-((1r,4r)-4-methoxycyclohexyl)picolinamide]	6.05
CO[C@H]1CC[C@H](NC(=O)c2cc(-c3cncs3)ccc2NC(C)=O)CC1 [compound 6, 2-acetamido-N-((1r,4r)-4-methoxycyclohexyl)-5-(thiazol-5-yl) benzamide]	< 5.00
CO[C@H]1CC[C@H](NC(=O)c2cc(-c3cncs3)ccc2N)CC1 [compound 7, 2-amino-N-((1r,4r)-4-methoxycyclohexyl)-5-(thiazol-5-yl) benzamide]	< 5.00
CO[C@H]1CC[C@H](NC(=O)c2cccc(-c3cncs3)c2F)CC1 [compound 8, 2-fluoro-N-((1r,4r)-4-methoxycyclohexyl)-3-(thiazol-5-yl)benzamide]	< 5.00
CO[C@H]1CC[C@H](NC(=O)c2cc(-n3ccnc3)nnc2N)CC1 [compound 10, 3-amino-6-(1H-imidazol-1-yl)-N-((1r,4r)-4-methoxycyclohexyl)pyridazine-4-carboxamide]	6.14
CO[C@H]1CC[C@H](NC(=O)c2cccc(-c3cncs3)n2)CC1 [compound 12, N-((1r,4r)-4-methoxycyclohexyl)-6-(thiazol-5-yl)picolinamide]	< 5.00
CO[C@H]1CC[C@H](NC(=O)c2cccc(-c3ccno3)n2)CC1 [compound 17, 6-(isoxazol-5-yl)-N-((1r,4r)-4-methoxycyclohexyl)picolinamide]	< 5.00
CO[C@H]1CC[C@H](NC(=O)c2cccc(-c3nnco3)n2)CC1 [compound 19, N-((1r,4r)-4-methoxycyclohexyl)-6-(1,3,4-oxadiazol-2-yl) picolinamide]	< 5.00
CO[C@H]1CC[C@H](NC(=O)c2ccc(N)c(-n3ccnc3)n2)CC1 [compound 20, 5-amino-6-(1H-imidazol-1-yl)-N-((1r,4r)-4-methoxycyclohexyl)picolinamide]	< 5.00
CO[C@H]1CC[C@H](NC(=O)c2cc(-n3ccnc3)nc(N)n2)CC1 [compound 21, 2-amino-6-(1H-imidazol-1-yl)-N-((1r,4r)-4-methoxycyclohexyl)pyrimidine-4-carboxamide]	8.10
CNc1nc(C(=O)N[C@H]2CC[C@H](OC)CC2)cc(-n2ccnc2)n1 [compound 22, 6-(1H-imidazol-1-yl)-N-((1r,4r)-4-methoxycyclohexyl)-2-(methylamino)pyrimidine-4-carboxamide]	5.56
CO[C@H]1CC[C@H](NC(=O)c2cc(N(C)C)nc(-n3ccnc3)n2)CC1 [compound 23, 6-(dimethylamino)-2-(1H-imidazol-1-yl)-N-((1r,4r)-4-methoxycyclohexyl)pyrimidine-4-carboxamide]	7.35
CNc1cc(C(=O)N[C@H]2CC[C@H](OC)CC2)nc(-n2ccnc2)n1 [compound 24, 2-(1H-imidazol-1-yl)-N-((1r,4r)-4-methoxycyclohexyl)-6-(methylamino)pyrimidine-4-carboxamide]	7.52
CO[C@H]1CC[C@H](NC(=O)c2cc(N3CCCCC3)nc(-n3ccnc3)n2)CC1 [compound 26, 2-(1H-imidazol-1-yl)-N-((1r,4r)-4-methoxycyclohexyl)-6-(piperidin-1-yl)pyrimidine-4-carboxamide]	7.34

Compound	pIC50
CO[C@H]1CC[C@H](NC(=O)c2nc(-c3cncs3)cnc2N)CC1 [compound 27, 3-amino-N-((1r,4r)-4-methoxycyclohexyl)-6-(thiazol-5-yl)pyrazine-2-carboxamide]	6.07
CO[C@H]1CC[C@H](NC(=O)c2cc(-n3ccnc3)cnn2)CC1 [compound 28, 5-(1H-imidazol-1-yl)-N-((1r,4r)-4-methoxycyclohexyl)pyridazine-3-carboxamide]	4.65
CO[C@H]1CC[C@H](NC(=O)c2cc(-c3cncs3)cc3cc[nH]c23)CC1 [compound 29, N-((1r,4r)-4-methoxycyclohexyl)-5-(thiazol-5-yl)-1H-indole-7-carboxamide]	7.60
O=C(NC1CCCCC1)c1cncc(-n2ccnc2)n1 [compound 30, N-cyclohexyl-6-(1H-imidazol-1-yl)pyrazine-2-carboxamide]	7.38
CC(C)NC(=O)c1cncc(-n2ccnc2)n1 [compound 31, 6-(1H-imidazol-1-yl)-N-isopropylpyrazine-2-carboxamide]	6.40
O=C(NC1CCOCC1)c1cncc(-n2ccnc2)n1 [compound 32, 6-(1H-imidazol-1-yl)-N-(tetrahydro-2H-pyran-4-yl)pyrazine-2-carboxamide]	7.08
O=C(NC1CCNCC1)c1cncc(-n2ccnc2)n1 [compound 33, 6-(1H-imidazol-1-yl)-N-(piperidin-4-yl)pyrazine-2-carboxamide]	5.39
CC(C)(C)NC(=O)c1cncc(-n2ccnc2)n1 [compound 34, N-(tert-butyl)-6-(1H-imidazol-1-yl)pyrazine-2-carboxamide]	5.41
O=C(Nc1ccccc1)c1cncc(-n2ccnc2)n1 [compound 35, 6-(1H-imidazol-1-yl)-N-phenylpyrazine-2-carboxamide]	8.40
CN1CCC(NC(=O)c2cncc(-n3ccnc3)n2)CC1 [compound 36, 6-(1H-imidazol-1-yl)-N-(1-methylpiperidin-4-yl)pyrazine-2-carboxamide]	5.01
O=C(NCC1CCCCC1)c1cncc(-n2ccnc2)n1 [compound 37, N-(cyclohexylmethyl)-6-(1H-imidazol-1-yl)pyrazine-2-carboxamide]	6.46
O=C(NCc1ccccc1)c1cncc(-n2ccnc2)n1 [compound 38, N-benzyl-6-(1H-imidazol-1-yl)pyrazine-2-carboxamide]	6.34
CC(NC(=O)c1cncc(-n2ccnc2)n1)C1CCCCC1 (centres unmarked) [compound 39, N-(1-cyclohexylethyl)-6-(1H-imidazol-1-yl)pyrazine-2-carboxamide]	6.65
CC(=O)N1CCC(NC(=O)c2cncc(-n3ccnc3)n2)CC1 [compound 40, N-(1-acetylpiperidin-4-yl)-6-(1H-imidazol-1-yl)pyrazine-2-carboxamide]	7.02
CO[C@H]1CC[C@H](NC(=O)c2nc(-n3ccnc3)cnc2N)CC1 [compound 41, 3-amino-6-(1H-imidazol-1-yl)-N-((1r,4r)-4-methoxycyclohexyl) pyrazine-2-carboxamide]	7.89
Nc1ncc(-n2ccnc2)nc1C(=O)NC1CCCCC1 [compound 42, 3-amino-N-cyclohexyl-6-(1H-imidazol-1-yl)pyrazine-2-carboxamide]	7.96
CO[C@H]1CC[C@H](NC(=O)c2nc(-n3ccnc3)cnc2N(C)C)CC1 [compound 46, 3-(dimethylamino)-6-(1H-imidazol-1-yl)-N-((1r,4r)-4-methoxycyclohexyl) pyrazine-2-carboxamide]	6.27
CNc1ncc(-n2ccnc2)nc1C(=O)N[C@H]1CC[C@H](OC)CC1 [compound 47, 6-(1H-imidazol-1-yl)-N-((1r,4r)-4-methoxycyclohexyl)-3-(methylamino)pyrazine-2-carboxamide]	7.42
O=C(NC1CCCCC1)c1cccc(-n2ccnc2)n1 [compound 49, N-cyclohexyl-6-(1H-imidazol-1-yl)picolinamide]	7.15
CO[C@H]1CC[C@H](NC(=O)c2cc(-n3ccnc3)cc(C)n2)CC1 [compound 50, 4-(1H-imidazol-1-yl)-N-((1r,4r)-4-methoxycyclohexyl)-6-methylpicolinamide]	< 5.00
CO[C@H]1CC[C@H](NC(=O)c2cc(Cl)cc(-n3ccnc3)n2)CC1 [compound 51, 4-chloro-6-(1H-imidazol-1-yl)-N-((1r,4r)-4-methoxycyclohexyl) picolinamide]	8.05
CO[C@H]1CC[C@H](NC(=O)c2cc(C)cc(-n3ccnc3)n2)CC1 [compound 52, 6-(1H-imidazol-1-yl)-N-((1r,4r)-4-methoxycyclohexyl)-4-methylpicolinamide]	7.26
